Values of other authors as cited in patent US9114169B2, “Sweetening and healthy compositions and methods associated therewith” (priority 2013, dated 2015).

Columns and labels:
[1] = compared with resveratrol
[2] = compared with resveratrol; remark: listed apart in the source
[3] = fold longer than resveratrol
[4] = fold greater than resveratrol

For `COc1cc(/C=C/c2ccc(O)cc2)cc(OC)c1` [Pterostilbene, pterostilbene], the “metabolic stability relative to resveratrol” value [1] is listed as “greater”, the “absorption relative to resveratrol” value [2] is listed as “greater absorption” and the “half-life in the human body relative to resveratrol” value [3] is listed as “seven”. For the same compound, the “cellular uptake relative to resveratrol” value [4] was 2-4 times.
